# Assay results reported in ChEMBL document CHEMBL5096146, “Porphyrin and phthalocyanine photosensitizers designed for targeted photodynamic therapy of colorectal cancer” (Bioorg Med Chem, 2021).
# Columns and labels:
# [1] = tested on: WiDr; assay: Photocytotoxicity against human WiDr cells assessed as lethal dose incubated for 18 hrs followed by replacement of medium containing compound with 48 hrs incubation and subsequent light irradiation of 13.5 mW/cm2 at 435 nm measured after 48 hrs by MTT assay; format: functional; details: light or radiation study, read-out: LD50 (the source's name)
# [2] = tested on: HT-29; assay: Photocytotoxicity against human HT-29 cells assessed as lethal dose incubated for 4 hrs followed by 3 J/cm2 LED irradiation and subsequent compound replenishment measured after 20 hrs by MTT assay; format: functional
# [3] = tested on: WiDr; assay: Photodynamic cytotoxicity against human WiDr cells assessed as reduction in cell viability at 50 nM incubated for 24 hrs followed by compound washout and 7.5 mW/cm2 light irradiation measured after 24 hrs by MTT assay relative to control; format: functional
# [4] = tested on: WiDr; assay: Photodynamic cytotoxicity against human WiDr cells assessed as cell growth inhibition measured after 24 hrs of 10J light irradiation by flow cytometry; format: functional, cell-based; details: light or radiation study
# [5] = tested on: WiDr; assay: Photodynamic cytotoxicity against human WiDr cells assessed as cell growth inhibition measured after 72 hrs of 10J light irradiation by flow cytometry; format: functional, cell-based; details: light or radiation study
# [6] = tested on: HT-29; assay: Photodynamic cytotoxicity against human HT-29 cells assessed as reduction in cell viability incubated for 3 hrs followed by fresh medium replacement and subsequent white LED irradiation measured after 24 hrs by MTT assay relative to control; format: functional
# [7] = tested on: HT-29; assay: Photodynamic cytotoxicity against human HT-29 cells assessed as reduction in cell viability incubated for 3 hrs followed by fresh medium replacement and subsequent blue LED irradiation measured after 24 hrs by MTT assay relative to control; format: functional
# [8] = tested on: HT-29; assay: Photodynamic cytotoxicity against human HT-29 cells assessed as reduction in cell viability incubated for 3 hrs followed by fresh medium replacement and subsequent red LED irradiation measured after 24 hrs by MTT assay relative to control; format: functional
# [9] = tested on: HT-29; assay: Antitumor activity against human HT-29 cells xenografted in BALB/c mouse assessed as tumor growth inhibition at 250 mg/kg, ip followed by LED irradiation with repeated compound irradiation for thrice upto 3 weeks relative to control; format: functional; details: HT-29, light or radiation study, 504 h, read-out: TGI
# [10] = tested on: HT-29; assay: Photodynamic cytotoxicity against human HT-29 cells assessed as reduction in cell viability at 19.4 J/cm2 light irradiation followed by immediate fresh medium replacement measured after 24 hrs by MTT assay relative to control; format: functional
# [11] = tested on: HT-29; assay: Photodynamic cytotoxicity against human HT-29 cells assessed as reduction in cell viability at 19.4 J/cm2 light irradiation >570 nm followed by immediate fresh medium replacement measured after 24 hrs by MTT assay relative to control; format: functional
compound,measurement,setting,value
C[N+](C)(C)c1ccc(-c2c3nc(c(-c4ccc([N+](C)(C)C)cc4)c4ccc([nH]4)c(-c4ccc([N+](C)(C)C)cc4)c4nc(c(-c5ccc([N+](C)(C)C)cc5)c5ccc2[nH]5)C=C4)C=C3)cc1,CC50,[1],2 µM
Oc1cccc(-c2c3nc(c(-c4cccc(O)c4)c4ccc([nH]4)c(-c4cccc(O)c4)c4nc(c(-c5cccc(O)c5)c5ccc2[nH]5)CC4)C=C3)c1 [TEMOPORFIN],LD70,[2],0.6 µg/mL
same,CC50,"[2]; Homo sapiens, HT-29, light or radiation study, read-out: LD50 (the source's name)",0.3 µg/mL
Oc1ccc(Cl)c(-c2c3nc(cc4ccc([nH]4)c(-c4cc(O)ccc4Cl)c4nc(cc5ccc2[nH]5)C=C4)C=C3)c1,Activity,[3],>50%
Oc1ccc(Br)c(-c2c3nc(cc4ccc([nH]4)c(-c4cc(O)ccc4Br)c4nc(cc5ccc2[nH]5)C=C4)C=C3)c1,Activity,[3],>50%
same,IC50,[4],0.18 µM
same,IC50,[5],0.14 µM
O=S(=O)(O)c1ccc(-c2c3nc(c(-c4ccc(S(=O)(=O)O)cc4)c4ccc([nH]4)c(-c4ccc(S(=O)(=O)O)cc4)c4nc(c(-c5ccc(S(=O)(=O)O)cc5)c5ccc2[nH]5)C=C4)C=C3)cc1,CC50,[1],100 µM
C=CC1=C(C)c2cc3[nH]c(cc4nc(cc5[nH]c(cc1n2)c(C)c5C=C)C(C)=C4CCC(=O)O)c(CCC(=O)O)c3C,Activity,[6],40%
same,Activity,[7],40%
same,Activity,[8],20%
same,inhibition in vivo at 250 mg/kg,[9],88%
Oc1ccc(Br)c(-c2c3nc(c(-c4cc(O)ccc4Br)c4ccc([nH]4)c(-c4cc(O)ccc4Br)c4nc(c(-c5cc(O)ccc5Br)c5ccc2[nH]5)C=C4)C=C3)c1,IC50,[4],0.464 µM
same,IC50,[5],0.62 µM
C1=Cc2nc1c(-c1ccc3ccccc3n1)c1ccc([nH]1)c(-c1ccc3ccccc3n1)c1nc(c(-c3ccc4ccccc4n3)c3ccc([nH]3)c2-c2ccc3ccccc3n2)C=C1,Activity,[10],80%
same,Activity,[11],10%
Oc1ccc(-c2c3nc(c(-c4ccc(O)cc4)c4ccc([nH]4)c(-c4ccc(O)cc4)c4nc(c(-c5ccc(O)cc5)c5ccc2[nH]5)C=C4)C=C3)cc1,CC50,[1],0.2 µM
Oc1cccc(-c2c3nc(cc4ccc([nH]4)c(-c4cccc(O)c4)c4nc(cc5ccc2[nH]5)C=C4)C=C3)c1,Activity,[3],>50%
Oc1cccc(-c2c3nc(cc4ccc([nH]4)c(-c4cccc(O)c4I)c4nc(cc5ccc2[nH]5)C=C4)C=C3)c1I,Activity,[3],>50%
O=C(O)c1ccc(-c2c3nc(c(-c4ccc(C(=O)O)cc4)c4ccc([nH]4)c(-c4ccc(C(=O)O)cc4)c4nc(c(-c5ccc(C(=O)O)cc5)c5ccc2[nH]5)C=C4)C=C3)cc1,CC50,[1],15 µM
Oc1cc(-c2c3nc(cc4ccc([nH]4)c(-c4ccc(I)c(O)c4)c4nc(cc5ccc2[nH]5)C=C4)C=C3)ccc1I,Activity,[3],>50%
